Source: article PMC4501006, “Preliminary Characterization and In Vivo Studies of Structurally Identical ^18F- and ^125I-Labeled Benzyloxybenzenes for PET/SPECT Imaging of β-Amyloid Plaques” (Scientific Reports, 2015)

Columns and labels:
[1] = Dynamic microPET/CT imaging in normal ICR mice; assay type: in vivo; conditions: for brain radioactivity retention from PET time-activity curve: at 60 min; for muscle and bone uptake, standardized uptake value (SUV): entire 60 min PET scan
Method: To further assess the pharmacokinetics of these two couple of radiolabeled benzyloxybenzenes, following dynamic PET/CT and SPECT/CT scans were conducted in normal ICR mice. High contrast PET and SPECT images implied that all the four radiolabeled benzyloxybenzenes can penetrate the BBB to a great degree and washout from the normal brain regions (Fig. 7a). […] Sustained low muscle and bone uptakes were observed during the entire 60 min scans with standardized uptake values (SUV) of approximate 0.7. […] These PET imaging data well matched the in vivo biodistribution results.
Four normal ICR mice (20–22 g, male) were used for dynamic microPET/CT and microSPECT/CT imaging. The whole-body PET/CT scans were performed using Siemens Inveon device (Siemens Medical Solutions), while SPECT/CT scans were conducted with Mediso nanoScan SPECT/CT scanner (Mediso Medical Imaging System). All mice were anesthetized with 2% isoflurane. Dynamic PET and SPECT scans from 0 to 60 min were started immediately after intravenous injection of [^18F]7a (injected dose, 2.2 MBq), [^18F]12a (injected dose, 4.1 MBq), [^125I]7a (injected dose, 25 MBq), and [^125I]12a (injected dose, 48 MBq), respectively. PET images were reconstructed using three-dimensional ordered subsets expectation maximization (3D OSEM) algorithm, and 3D iterative algorithm was used for SPECT image reconstruction. Time frames for PET imaging were 20 × 60 s and 10 × 240 s, and that for SPECT imaging were 20 × 180 s. Regions of interests (ROIs) were manually drawn on the whole brain, heart, liver, muscle and bone using the CT templates and then transferred to corresponding coregistered PET images. SUVs, injected dose and body weight normalized and decay corrected radioactivity concentration, were calculated for all ROIs. TACs were calculated from this.

Aβ plaques = Aβ plaques (Homo sapiens, UniProt P05067); assay: Ex vivo autoradiography and brain radioactivity retention, Tg versus wild-type mouse; assay type: in vivo, Tg mouse (APPswe/PSEN1); conditions: 30 min post-injection
Method: To further characterize the in vivo Aβ imaging capabilities, we conducted ex vivo autoradiographic studies with [^125I]7a which combined high binding affinity, high initial brain uptake, fast clearance and excellent in vivo biostability in the brain. [^125I]7a (1 mCi, 200 μL) was injected intravenously into a Tg mouse (APPswe/PSEN1, male, 27 months old) and an age-matched wild-type mouse (C57BL6, male). Thirty minutes after injection, the brains were removed, weighed and the radioactivity was counted. Then the brains were frozen and sectioned for ex vivo autoradiography. […] Ex vivo autoradiography was performed on a transgenic mouse (APPswe/PSEN1, male, 27 months old) and a wild-type mouse (C57BL6, male, 27 months old). A saline solution (200 μL, 10% EtOH) of 1 mCi of [^125I]7a was injected into the mice via the tail vein. The mice were sacrificed by decapitation at 30 min post-injection, and the brains were immediately removed, weighed and the radioactivity was counted. Frozen brain sections of 20 μm were cut and exposed to a phosphorus plate (Perkin-Elmer, USA) for one week. Ex vivo autoradiographic images were obtained using a phosphor imaging system (Cyclone, Packard). Subsequently the same sections were stained with ThS to confirm the presence and location of Aβ plaques.

Chain of Aβ plaques (P05067 672-711 limits assumed): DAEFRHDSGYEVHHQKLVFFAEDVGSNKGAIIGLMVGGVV

Row | brain uptake from PET time-activity curve ([1]; at 8 min) | brain radioactivity retention from PET time-activity curve [1] | muscle and bone uptake, standardized uptake value (SUV) [1] | brain uptake from PET time-activity curve ([1]; at 7 min) | higher brain radioactivity retention in Tg mouse than in wild-type control mouse (Aβ plaques; i.v., 1 mCi) | Compound | ex vivo autoradiography, labeling of Aβ plaques (Aβ plaques; Tg mouse brain sections)
1 | 5.96 % ID/g | 3.08 % ID/g | ~0.7 |  |  | [18F]CCOc1ccc(OCc2ccc(I)cc2)cc1 [[^18F]7a] | 
2 |  | 3.47 % ID/g | ~0.7 | 6.74 % ID/g |  | [18F]CCOc1ccc(COc2ccc(I)cc2)cc1 [[^18F]12a] | 
3 |  |  |  |  | 40% | FCCOc1ccc(OCc2ccc([125I])cc2)cc1 [[^125I]7a] | clear labeling of Aβ plaques in the Tg mouse brain
